Measurements: ChEMBL document CHEMBL5696442, “Discovery of type II inhibitors of TGFβ-activated kinase 1 (TAK1) and mitogen-activated protein kinase kinase kinase kinase 2 (MAP4K2)” (J Med Chem, 2015)
The source made the active and inactive calls. No cut-off for these calls is given here.

Tests used:
[1] = biological target: Calcium/calmodulin-dependent protein kinase kinase 2 (Homo sapiens) (UniProt Q96RR4); test: Inhibition of CAMKK2 (unknown origin) at 10 uM by Ambit Kinomescan binding assay relative to control
Sequence of Calcium/calmodulin-dependent protein kinase kinase 2 (Homo sapiens) (Q96RR4 2-588 limits assumed): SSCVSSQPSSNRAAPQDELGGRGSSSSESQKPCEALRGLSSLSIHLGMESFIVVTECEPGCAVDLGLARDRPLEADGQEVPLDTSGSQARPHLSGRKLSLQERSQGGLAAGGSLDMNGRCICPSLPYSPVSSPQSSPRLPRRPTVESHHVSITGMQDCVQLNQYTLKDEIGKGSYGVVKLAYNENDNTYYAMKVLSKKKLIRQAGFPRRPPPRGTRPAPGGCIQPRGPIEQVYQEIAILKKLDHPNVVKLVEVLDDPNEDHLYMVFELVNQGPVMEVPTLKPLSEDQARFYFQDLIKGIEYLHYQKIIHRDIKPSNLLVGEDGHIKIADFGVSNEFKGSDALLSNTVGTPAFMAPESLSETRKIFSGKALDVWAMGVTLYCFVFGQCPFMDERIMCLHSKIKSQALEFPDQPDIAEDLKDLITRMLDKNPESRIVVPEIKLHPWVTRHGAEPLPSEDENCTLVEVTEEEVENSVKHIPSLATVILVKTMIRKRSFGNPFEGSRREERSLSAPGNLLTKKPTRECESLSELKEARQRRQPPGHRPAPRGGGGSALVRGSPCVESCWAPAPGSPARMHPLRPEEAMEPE

[2] = biological target: Ephrin type-B receptor 3 (Homo sapiens) (UniProt P54753); test: Inhibition of EPHB3 (unknown origin) at 10 uM by Ambit Kinomescan binding assay
Sequence of Ephrin type-B receptor 3 (Homo sapiens) (P54753 whole entry): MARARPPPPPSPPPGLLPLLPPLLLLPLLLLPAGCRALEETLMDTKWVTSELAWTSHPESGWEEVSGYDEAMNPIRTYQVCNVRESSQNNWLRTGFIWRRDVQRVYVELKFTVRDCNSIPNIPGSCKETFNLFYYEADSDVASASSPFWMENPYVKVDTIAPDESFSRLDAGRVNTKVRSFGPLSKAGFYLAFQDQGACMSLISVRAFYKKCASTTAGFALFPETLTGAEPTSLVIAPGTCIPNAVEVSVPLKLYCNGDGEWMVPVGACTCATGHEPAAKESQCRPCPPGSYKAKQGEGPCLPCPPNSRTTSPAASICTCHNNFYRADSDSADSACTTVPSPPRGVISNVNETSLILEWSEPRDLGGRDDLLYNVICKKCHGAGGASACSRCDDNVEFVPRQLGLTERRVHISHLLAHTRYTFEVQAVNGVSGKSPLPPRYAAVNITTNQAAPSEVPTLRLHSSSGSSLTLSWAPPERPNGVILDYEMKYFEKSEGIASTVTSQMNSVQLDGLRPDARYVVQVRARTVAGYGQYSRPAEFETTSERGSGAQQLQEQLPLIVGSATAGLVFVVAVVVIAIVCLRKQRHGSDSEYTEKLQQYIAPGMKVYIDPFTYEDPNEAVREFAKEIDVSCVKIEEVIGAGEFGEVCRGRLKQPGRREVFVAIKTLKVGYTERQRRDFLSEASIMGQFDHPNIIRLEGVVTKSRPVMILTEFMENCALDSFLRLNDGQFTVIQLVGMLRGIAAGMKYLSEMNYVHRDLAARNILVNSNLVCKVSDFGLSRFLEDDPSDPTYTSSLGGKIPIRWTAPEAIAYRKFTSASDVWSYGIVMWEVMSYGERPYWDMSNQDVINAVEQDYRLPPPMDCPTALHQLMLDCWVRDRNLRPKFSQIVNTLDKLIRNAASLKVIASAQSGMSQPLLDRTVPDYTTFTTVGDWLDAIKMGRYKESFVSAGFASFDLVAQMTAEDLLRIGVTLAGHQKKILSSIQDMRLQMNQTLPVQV

[3] = biological target: T1, Serine/threonine-protein kinase Nek9 (Homo sapiens) (UniProt Q8TD19); test: Inhibition of NEK9 K1 labeling site harbouring TEDDSLVVWKEVDLTR in human Huh-7 cells at 10 uM by KiNativ Profiling analysis relative to control; assay type: cell-based
T1 sequence (whole entry): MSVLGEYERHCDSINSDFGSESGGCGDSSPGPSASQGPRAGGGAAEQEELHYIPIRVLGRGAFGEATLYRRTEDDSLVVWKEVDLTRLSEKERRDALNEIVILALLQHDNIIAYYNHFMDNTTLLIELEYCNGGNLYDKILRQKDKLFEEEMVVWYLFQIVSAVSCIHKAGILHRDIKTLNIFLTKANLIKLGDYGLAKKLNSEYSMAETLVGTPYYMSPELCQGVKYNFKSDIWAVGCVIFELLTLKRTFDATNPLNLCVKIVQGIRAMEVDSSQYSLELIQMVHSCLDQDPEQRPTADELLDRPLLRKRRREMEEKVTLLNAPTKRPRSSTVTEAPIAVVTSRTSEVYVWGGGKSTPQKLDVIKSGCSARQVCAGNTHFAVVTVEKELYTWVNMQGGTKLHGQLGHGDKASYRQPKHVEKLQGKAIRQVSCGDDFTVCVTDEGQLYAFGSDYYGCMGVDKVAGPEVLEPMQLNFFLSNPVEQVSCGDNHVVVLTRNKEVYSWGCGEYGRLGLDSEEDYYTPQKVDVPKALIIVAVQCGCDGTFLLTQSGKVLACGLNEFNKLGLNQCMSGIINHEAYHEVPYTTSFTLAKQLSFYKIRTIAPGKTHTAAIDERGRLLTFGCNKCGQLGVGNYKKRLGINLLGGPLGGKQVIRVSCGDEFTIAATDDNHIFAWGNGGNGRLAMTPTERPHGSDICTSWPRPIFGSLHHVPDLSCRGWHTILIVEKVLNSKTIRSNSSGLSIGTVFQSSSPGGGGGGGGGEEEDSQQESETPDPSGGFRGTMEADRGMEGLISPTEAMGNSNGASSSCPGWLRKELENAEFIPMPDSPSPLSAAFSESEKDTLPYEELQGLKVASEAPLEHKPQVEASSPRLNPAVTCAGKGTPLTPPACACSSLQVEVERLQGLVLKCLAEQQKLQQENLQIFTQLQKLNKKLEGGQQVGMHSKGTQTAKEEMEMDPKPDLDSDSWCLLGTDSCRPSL

[4] = biological target: T2, Phosphatidylinositol 5-phosphate 4-kinase type-2 gamma (Homo sapiens) (UniProt Q8TBX8); test: Inhibition of PIP5K2C C2 labeling site in human Huh-7 cells at 10 uM by KiNativ Profiling analysis relative to control; assay type: cell-based
T2 sequence (whole entry): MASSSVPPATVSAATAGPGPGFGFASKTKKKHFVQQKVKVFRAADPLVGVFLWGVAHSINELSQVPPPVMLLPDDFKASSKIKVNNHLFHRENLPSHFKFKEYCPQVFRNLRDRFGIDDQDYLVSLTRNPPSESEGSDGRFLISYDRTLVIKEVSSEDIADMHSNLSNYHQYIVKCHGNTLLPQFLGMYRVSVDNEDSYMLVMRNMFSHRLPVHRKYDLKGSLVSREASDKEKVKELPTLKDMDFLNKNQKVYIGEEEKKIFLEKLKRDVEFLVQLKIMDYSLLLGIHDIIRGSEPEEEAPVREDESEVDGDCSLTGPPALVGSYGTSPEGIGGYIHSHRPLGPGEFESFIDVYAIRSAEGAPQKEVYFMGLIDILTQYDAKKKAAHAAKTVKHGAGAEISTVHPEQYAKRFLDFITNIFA

[5] = biological target: T3, NUAK family SNF1-like kinase 1 (Homo sapiens) (UniProt O60285); test: Inhibition of NuaK1 Lys2 labeling site in human Huh-7 cells at 1 uM by KiNativ Profiling analysis relative to control; assay type: cell-based
T3 sequence (whole entry): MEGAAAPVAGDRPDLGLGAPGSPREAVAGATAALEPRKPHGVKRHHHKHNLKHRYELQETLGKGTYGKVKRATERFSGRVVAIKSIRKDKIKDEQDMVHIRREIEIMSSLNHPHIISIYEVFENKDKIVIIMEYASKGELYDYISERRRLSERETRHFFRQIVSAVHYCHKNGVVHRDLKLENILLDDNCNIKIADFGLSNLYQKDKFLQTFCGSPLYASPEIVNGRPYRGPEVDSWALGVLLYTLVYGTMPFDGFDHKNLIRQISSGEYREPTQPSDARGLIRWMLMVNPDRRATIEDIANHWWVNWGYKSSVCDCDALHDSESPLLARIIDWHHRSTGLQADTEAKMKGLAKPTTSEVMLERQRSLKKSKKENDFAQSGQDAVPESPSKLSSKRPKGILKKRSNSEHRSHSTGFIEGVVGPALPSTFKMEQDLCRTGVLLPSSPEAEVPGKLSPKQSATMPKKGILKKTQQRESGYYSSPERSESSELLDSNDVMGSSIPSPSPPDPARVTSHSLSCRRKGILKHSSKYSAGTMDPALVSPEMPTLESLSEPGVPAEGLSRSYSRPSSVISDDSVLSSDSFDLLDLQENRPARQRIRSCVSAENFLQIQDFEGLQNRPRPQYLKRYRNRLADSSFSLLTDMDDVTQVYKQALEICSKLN

[6] = biological target: Homeodomain-interacting protein kinase 4 (Homo sapiens) (UniProt Q8NE63); test: Inhibition of HIPK4 (unknown origin) at 1 uM by Ambit Kinomescan binding assay relative to control; values are per cent of control
Sequence of Homeodomain-interacting protein kinase 4 (Homo sapiens) (Q8NE63 whole entry): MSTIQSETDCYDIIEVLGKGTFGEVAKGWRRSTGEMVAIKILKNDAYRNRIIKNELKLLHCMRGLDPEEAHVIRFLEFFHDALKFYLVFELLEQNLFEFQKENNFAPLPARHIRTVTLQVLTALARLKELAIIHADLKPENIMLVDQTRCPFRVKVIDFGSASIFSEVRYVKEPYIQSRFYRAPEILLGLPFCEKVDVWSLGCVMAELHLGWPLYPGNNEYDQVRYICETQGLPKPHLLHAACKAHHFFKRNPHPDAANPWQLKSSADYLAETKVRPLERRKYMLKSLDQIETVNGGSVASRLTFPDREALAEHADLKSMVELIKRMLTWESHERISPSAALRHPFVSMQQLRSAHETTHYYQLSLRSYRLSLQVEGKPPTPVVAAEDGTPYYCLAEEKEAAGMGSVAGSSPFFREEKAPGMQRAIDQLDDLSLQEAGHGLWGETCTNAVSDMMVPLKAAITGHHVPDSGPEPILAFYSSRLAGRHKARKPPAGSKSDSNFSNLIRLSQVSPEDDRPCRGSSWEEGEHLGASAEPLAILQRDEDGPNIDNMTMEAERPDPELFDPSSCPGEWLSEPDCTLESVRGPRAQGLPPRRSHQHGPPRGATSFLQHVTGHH

## CCN1CCN(Cc2ccc(NC(=O)c3ccc(C)c(Oc4ccnc5[nH]ccc45)c3)cc2C(F)(F)F)CC1
[1]
  inhibition: 28%
[2]
  inhibition: inactive
[3]
  inhibition: 18.6%
[4]
  inhibition: 2.3%

## CNc1cc(Oc2cc(C(=O)Nc3cc(N4CCN(C)CC4)cc(C(F)(F)F)c3)ccc2C)ncn1
[5]
  inhibition: 20.5%

## CCN1CCN(Cc2ccc(NC(=O)c3ccc(C)c(/C=C/c4cnc5[nH]ccc5c4OC)c3)cc2C(F)(F)F)CC1
[6]
  residual activity: 16%
